In ChEMBL document CHEMBL1156000, “Synthesis of 2alpha-substituted-14-epi-previtamin D3 and its genomic activity” (Bioorg Med Chem Lett, 2009):
The source made the active and inactive calls. No cut-off for these calls is given here.

Experiments:
[1] = biological target: T1, Vitamin D3 receptor (Gallus gallus) (UniProt O42392); assay: Displacement of [26,27-methyl-3H]1alpha,25-dihydroxyvitamin D3 from chick intestinal VDR after 1 hr by liquid scintillation counting
T1 sequence (whole entry): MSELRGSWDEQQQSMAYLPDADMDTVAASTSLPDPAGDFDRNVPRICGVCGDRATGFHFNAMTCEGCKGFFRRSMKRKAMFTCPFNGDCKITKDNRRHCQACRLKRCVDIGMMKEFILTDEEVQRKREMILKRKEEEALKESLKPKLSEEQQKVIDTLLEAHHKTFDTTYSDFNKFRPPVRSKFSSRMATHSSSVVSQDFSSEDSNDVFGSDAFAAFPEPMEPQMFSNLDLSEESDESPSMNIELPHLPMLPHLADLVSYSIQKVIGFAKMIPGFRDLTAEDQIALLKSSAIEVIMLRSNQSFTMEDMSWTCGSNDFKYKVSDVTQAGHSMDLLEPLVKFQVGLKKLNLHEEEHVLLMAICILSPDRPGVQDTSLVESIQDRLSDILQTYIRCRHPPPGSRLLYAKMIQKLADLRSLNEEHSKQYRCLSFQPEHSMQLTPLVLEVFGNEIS

[2] = biological target: T2, Vitamin D3 receptor (Homo sapiens) (UniProt P11473); conditions: HOS
T2 sequence (whole entry): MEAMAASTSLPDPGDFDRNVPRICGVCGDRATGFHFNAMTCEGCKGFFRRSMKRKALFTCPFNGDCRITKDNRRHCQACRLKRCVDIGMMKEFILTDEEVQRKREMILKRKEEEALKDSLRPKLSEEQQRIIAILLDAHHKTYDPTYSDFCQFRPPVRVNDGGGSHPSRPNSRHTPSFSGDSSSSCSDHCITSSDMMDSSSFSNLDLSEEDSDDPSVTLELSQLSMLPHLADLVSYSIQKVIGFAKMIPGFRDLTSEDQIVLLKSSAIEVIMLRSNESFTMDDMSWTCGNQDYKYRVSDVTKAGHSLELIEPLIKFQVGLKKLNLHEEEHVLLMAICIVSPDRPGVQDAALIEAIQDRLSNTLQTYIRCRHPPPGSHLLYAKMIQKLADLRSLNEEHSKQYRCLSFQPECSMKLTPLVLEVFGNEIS
Description: Agonist activity at human VDR expressed in human HOS cells co-transfected with RXR gene assessed as osteocalcin promoter gene transactivation after 24 hrs by luciferase assay

Row | Compound | relative binding affinity (RBA) [1] | ED50 [2] [nM] | relative binding affinity (RBA) ([1]; tested as the 2H-labelled form) | ED50 ([2]; tested as the 2H-labelled form) [nM]
1 | CCCC[C@H]1[C@H](O)CC(/C=C\C2=CCC[C@@]3(C)[C@@H]2CC[C@@H]3[C@H](C)CCCC(C)(C)O)=C(C)[C@H]1O | Active | 5.77 |  | 
2 | CC1=C(/C=C\C2=CCC[C@@]3(C)[C@@H]2CC[C@@H]3[C@H](C)CCCC(C)(C)O)C[C@@H](O)[C@H](OCCCO)[C@@H]1O | Active | 0.95 |  | 
3 | CC1=C(/C=C\C2=CCC[C@@]3(C)[C@@H]2CC[C@@H]3[C@H](C)CCCC(C)(C)O)C[C@@H](O)C[C@@H]1O |  |  | Active | 0.46
4 | CC1=C(/C=C\C2=CCC[C@@]3(C)[C@@H]2CC[C@@H]3[C@H](C)CCCC(C)(C)O)C[C@@H](O)[C@H](c2ccccc2)[C@@H]1O | Active | 0.88 |  | 
5 | CC1=C(/C=C\C2=CCC[C@@]3(C)[C@@H]2CC[C@@H]3[C@H](C)CCCC(C)(C)O)C[C@@H](O)[C@H](CCCO)[C@@H]1O | Active | 0.69 |  | 
6 | CC1=C(/C=C\C2=CCC[C@@]3(C)[C@@H]2CC[C@@H]3[C@H](C)CCCC(C)(C)O)C[C@@H](O)[C@H](Cc2ccccc2)[C@@H]1O | Active | 30.2 |  | 
7 | CC1=C(/C=C\C2=CCC[C@@]3(C)[C@@H]2CC[C@@H]3[C@H](C)CCCC(C)(C)O)C[C@@H](O)[C@H](C)[C@@H]1O | Active | 0.12 |  | 
